# Measurements from patent publication US10196357B2, “Biaryl compositions and methods for modulating a kinase cascade” (Athenex, Inc., priority 2007, dated 2019).
# Legend:
# HT29 cell line = assay: BrdU cell growth inhibition, HT29; assay type: cell-based, human; conditions: Homo sapiens; for GI50: HT-29, HT29 (Colon) cells, read-out: GI50; for activity at 0.05 µM / activity at 0.5 µM / activity at 5 µM: HT-29, read-out: HT-29 Growth, % of Control Mean, n = 3; for activity at 0.05 µM: 50 nM; for activity at 0.5 µM: 500 nM
# Outline: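 HT29 colon carcinoma cells treated with compounds diluted from 20 mM DMSO stocks into DMEM/10% FBS. Proliferation read as colorimetric BrdU incorporation ELISA; GI calculated relative to untreated cells at time 0 and control cells at day n, with GI50 extrapolated. Net cell loss below time-0 level scored as cytotoxicity.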
# c-Src 3T3 cells = assay: BrdU cell growth inhibition, c-Src 3T3; assay type: cell-based, mouse; conditions: Mus musculus; for activity at 0.1 µM / activity at 1 µM / activity at 10 µM: NIH3T3, read-out: c-Src 3T3 Growth, % of Control Mean, n = 3; for activity at 0.1 µM: 100 nM; for GI50: c-Src 3T3 (c-Src527F/NIH3T3) cells, read-out: GI50
# Outline: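 c-Src 3T3 cells on poly-D-lysine plates in DMEM with 2% FBS, L-glutamine, pyruvate and 10 mM HEPES. Compounds came from 20 mM DMSO stocks diluted in DMEM/10% FBS. Proliferation was read by colorimetric BrdU-incorporation ELISA, and GI50 was extrapolated from growth relative to time-zero and untreated controls.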
# [1] = test system: colon tumor cell line KM 12; assay: tumor growth inhibition, KM12; assay type: cell-based; conditions: Homo sapiens; KM12 cells
# Description: (§1) These GI50's were determined using the standard tumor growth inhibition assays, similar to that described in detail for the HT29 cell line above, and the following cell lines: colon tumor cell lines KM 12, lung cancer cell line H460 and lung cancer cell line A549 (all are NCI standard tumor cell lines).
# [2] = test system: lung cancer cell line H460; assay: tumor growth inhibition, H460; assay type: cell-based; conditions: Homo sapiens, NCI-H460; H460 cells
# Description: as §1
# [3] = test system: lung cancer cell line A549; assay: tumor growth inhibition, A549; assay type: cell-based, Human; conditions: Homo sapiens
# Description: Growth Inhibition. […] T1 values≤T0 values were designated as T, cytotoxicity.
# HuH7 = assay: MTT growth inhibition, HuH7; assay type: cell-based, human; conditions: HuH7, 8.0×10^3 cells/wells, […] FBS @ 78 Hr
# Description: (§2) Samples of the test compounds were formulated in 100% DMSO to obtain 20 mM stock solutions; stored @ 4° C. The IC50s and IC80s were determined as described below. Huh7, WRL-68, PLC/PRF/5, Hep 3B, and Hep G2 human cancer lines were routinely cultured and maintained in a basal medium containing 2% FBS @ 37° C., 5% CO2. […] The assay medium was basal medium/1.5% FBS. Cells were cultured overnight in 96-well plates at 37° C., 5% CO2 prior to KX2-391. MSA and Dasatinib addition. […] 10 μL of 20× dilutions were added to the appropriate wells (n=3) containing 190 μL cancer cell line; 6561 nM to 0.012 nM range of final concentrations. Vehicle control contained cells, no sample. Medium control contained cells, no sample, 0.03% DMSO (highest DMSO concentration present in samples). […] On day 3, 10 μL MTT (5 mg/mL) were added to each well. Cells were incubated in the presence of MTT for 4 hours @ 37° C., 5% CO2. […] Cells were then incubated overnight @ 37°, 5% CO2. OD570 measurements were taken using BioTek Synergy HT multiplatform microplate reader. Growth inhibition curves IC50s and IC80s were determined using GraphPad Prism 5 statistical software.
# WRL-68 = assay: MTT growth inhibition, WRL-68; assay type: cell-based, human; conditions: WRL-68, 8.0×10^3 cells/wells, […] FBS @ 78 Hr
# Description: (§3) Samples of the test compounds were formulated in 100% DMSO to obtain 20 mM stock solutions; stored @ 4° C. The IC50s and IC80s were determined as described below. Huh7, WRL-68, PLC/PRF/5, Hep 3B, and Hep G2 human cancer lines were routinely cultured and maintained in a basal medium containing 2% FBS @ 37° C., 5% CO2. […] Vehicle control contained cells, no sample. Medium control contained cells, no sample, 0.03% DMSO (highest DMSO concentration present in samples). […] On day 3, 10 μL MTT (5 mg/mL) were added to each well. Cells were incubated in the presence of MTT for 4 hours @ 37° C., 5% CO2. […] Cells were then incubated overnight @ 37°, 5% CO2. OD570 measurements were taken using BioTek Synergy HT multiplatform microplate reader. Growth inhibition curves IC50s and IC80s were determined using GraphPad Prism 5 statistical software.
# PLC/PRF/5 = assay: MTT growth inhibition, PLC/PRF/5; assay type: cell-based, human; conditions: PLC/PRF/5, 8.0×10^3 cells/wells, […] FBS @ 78 Hr
# Description: as §3
# Hep 3B = assay: MTT growth inhibition, Hep 3B; assay type: cell-based, human; conditions: Hep 3B, 8.0×10^3 cells/wells, […] FBS @ 78 Hr
# Description: as §3
# Hep G2 = assay: MTT growth inhibition, Hep G2; assay type: cell-based, human; conditions: Hep G2, 8.0×10^3 cells/wells, […] FBS @ 78 Hr
# Description: as §2
# 769-P = assay: renal tumor cell growth inhibition, 769-P; assay type: cell-based, Human; conditions: Homo sapiens
# Description: (§4) These GI50s were determined using standard tumor growth inhibition assays, similar to those described in detail in this Example 7.
# 786-O = assay: renal tumor cell growth inhibition, 786-O; assay type: cell-based, Human; conditions: Homo sapiens, 786-0, renal cell adenocarcinoma
# Description: as §4
# Caki-2 = assay: renal tumor cell growth inhibition, Caki-2; assay type: cell-based, Human; conditions: Homo sapiens; Caki-2, clear cell carcinoma
# Description: as §4
# ACHN = assay: renal tumor cell growth inhibition, ACHN; assay type: cell-based, Human; conditions: Homo sapiens, renal cell adenocarcinoma
# Description: as §4
# [4] = test system: wild-type aywl strain of HBV; assay: HBV primary assay (HepG2-2.2.15 antiviral assay); assay type: cell-based; conditions: Test Concentration 10 μM
# Description: The HBV primary assay developed was conducted similarly to that described by Korba et al., (Antiviral Res. 15: 217-228 (1991) and Antiviral Res. 19: 55-70 (1992)) with the exception that viral DNA detection and quantification have been improved and simplified (Korba et al., Antiviral Res. 19: 55-70 (1992)).
# Compound 38 (KX2-377), Compound 136 (KX2-393), and Compound 137 (KX2-394) were evaluated for potential anti-HBV activity using a single high-test concentration of compounds in the standardized HepG2-2.2.15 antiviral assay. The HepG2-2.2.15 is a stable cell line producing high levels of the wild-type aywl strain of HBV. Briefly, HepG2-2.2.15 cells were plated in 96-well plates. Only the interior wells were utilized to reduce “edge effects” observed during cell culture; the exterior wells are filled with complete medium to help minimize sample evaporation. On the following day, the confluent monolayer of HepG2-2.2.15 cells was washed and the medium is replaced with complete medium containing test concentrations of a test article in triplicate. 3TC was used as the positive control, while media alone was added to cells as the untreated control. Three days later the culture medium was replaced with fresh medium containing the appropriately diluted drug. Six days following the initial administration of the test compound, the cell culture supernatant was collected, treated with pronase and DNAse and then used in a real-time quantitative TaqMan PCR assay for direct measurement of HBV DNA copies using an ABI Prism 7900 sequence detection system (Applied Biosystems, Foster City, Calif.).
# (§5) The antiviral activity of each test compound was calculated by comparing its HBV DNA copies against that of the untreated control cells (100%) to derive percent inhibition level. After removing the supernatant, the remaining cells were subject to CellTiter 96 Aqueous One (Promega, Madison, Wis.) solution cell proliferation assay (MTS-based) to measure cell viability. Cytotoxicity of the compound was determined by comparing its cell viability with that of the untreated cell control to derive percentage of the cell control.
# HepG2-2.2.15 cells = assay: cytotoxicity in HBV primary assay (MTS); assay type: cell-based; conditions: Test Concentration 10 μM
# Description: as §5
# [5] = noise-induced hearing loss; assay type: in vivo, Chinchillas; conditions: chinchilla ears treated on round window, 4 kHz band noise 105 dB SPL 4 h, days 1, 7, 21; relative to control ears
# Description: Chinchillas (N=6) were used in studies of noise-induced hearing loss. The animals' hearing sensitivity was measured using standard electrophysical techniques before the experimental manipulation. […] Animals were anesthetized, the auditory bullae were opened, and the left and right cochleas were visualized. The round window leading to the scala tympani of the cochlea was used as the access point for drug application. Animals were treated with KX1-004, KX1-141, KX1-329 or KX2-328 (a non-ATP competitive inhibitor from AstraZeneca, KX2-238), emulsified in DMSO, in 1000 mM of saline solution, which was placed on the round window of one ear. KX1-004:
# A control solution of 3 mM DMSO in 1000 mM of saline solution was placed on the round window of the other ear. The solution was allowed to set on the round window for 30 minutes, then the auditory bullae were closed. […] Following the noise exposure, the animals' hearing was tested at day 1, day 7, and day 21 to determine evoked potential threshold shifts. Permanent threshold shift was assessed at day 21.
# FIGS. 10-12 show the average threshold shifts for animals treated with KX1-004, KX1-141, KX1-329 or KX2-328.
# [6] = cisplatin-induced hearing loss; assay type: in vivo; conditions: guinea pigs, subcutaneous treatment prior to cisplatin
# Description: The effects of high level noise and ototoxic drugs, such as cisplatin or the class of aminoglycosides, share several common features in the inner ear. First, the noise and/or drugs alter the free radical/antioxidant levels in the cochlea (inner ear). […] Guinea pigs (N=7) were used in studies of cisplatin-induced hearing loss. The animals' hearing sensitivity was measured using standard electrophysical techniques before the experimental manipulation. […] Animals were anesthetized and treated with cisplatin. Subsequently, the animals' hearing was tested to determine evoked potential threshold shifts.
# KX1 is CH65. Animals were treated subcutaneously with KX1-004 prior to the cisplatin-induced hearing loss.
GI50 (HT29 cell line),GI50 [1],GI50 [2],melting point,Molecule,activity at 0.05 µM (HT29 cell line),activity at 0.5 µM (HT29 cell line),activity at 5 µM (HT29 cell line),activity at 0.1 µM (c-Src 3T3 cells),activity at 1 µM (c-Src 3T3 cells),activity at 10 µM (c-Src 3T3 cells),GI50 (c-Src 3T3 cells),further results
0.484 µM,0.105 µM,0.28 µM,169 to 170 °C,"O=C(Cc1ccc(-c2ccccc2)cc1)NCc1cccc(O)c1 [KX1-136, N(3-hydroxy-benzyl)-4-biphenylacetamide]",83.1%,< 0%,< 0%,46.3%,< 0%,< 0%,0.053 µM,GI50 ([3]; A549 (Lung) cells): 0.33 µM
0.877 µM,0.41 µM,0.89 µM,170 to 172 °C,"O=C(Cc1ccc(-c2ccccc2)cc1)NCc1cccc(F)c1 [KX1-305, N(3-fluoro-benzyl)-4-biphenylacetamide]",108%,< 0%,< 0%,35%,< 0%,< 0%,0.349 µM,GI50 ([3]; A549 cells): 1.03 µM
–,–,–,–,O=C(Cc1ccc(-c2ccc(OCCN3CCOCC3)cc2)cn1)NCc1ccccc1 [KX2-391-MSA],–,–,–,–,–,–,–,IC50 (HuH7): 0.009 µM; IC80 (HuH7): 0.023 µM; IC50 (WRL-68): 0.015 µM; IC80 (WRL-68): 0.025 µM; IC50 (PLC/PRF/5): 0.013 µM; IC80 (PLC/PRF/5): 0.024 µM; IC50 (Hep 3B): 0.026 µM; IC80 (Hep 3B): 0.088 µM; IC50 (Hep G2): 0.06 µM; IC80 (Hep G2): 3.66 µM
–,–,–,–,CN1CCN(CCOc2ccc(-c3ccc(CC(=O)NCc4cccc(F)c4)cc3)c(F)c2)CC1 [KX2-402],–,–,–,–,–,–,–,GI50 (769-P): 0.0084 µM; GI50 (786-O): 0.0577 µM; GI50 (Caki-2): 0.005 µM; GI50 (ACHN): 0.0069 µM
–,–,–,–,Cl.Cl.O=C(Cc1ccc(-c2ccc(OCCN3CCOCC3)cc2)cn1)NCc1ccccc1 [KXO1:2HCl],–,–,–,–,–,–,–,Antiviral Activity Percent inhibition of cell control [4]: 48.2%; Interpretation [4]: Cytotoxic; Cytotoxicity Percent of cell control (HepG2-2.2.15 cells): 51.3%
–,–,–,–,KX1-004,–,–,–,–,–,–,–,average dB threshold shifts [5]: lower; protection against cisplatin-induced hearing loss [6]: protected against ciplatin-induced hearing loss
